Reference: paper PMC8333425, “Discovery of a dual Ras and ARF6 inhibitor from a GPCR endocytosis screen” (Nature Communications, 2021)
Where “and” joins values, the source holds several entries; their conditions need not be identical. Identical values can stand only once.

Legend:
[1] = system: β-arrestin2; test: Confocal microscopy of β-arrestin2-YFP trafficking with AT1R; type: cell-based, human; settings: 50 μM; AngII
Procedure: One day before transfection, cells were seeded in 35-mm glass-bottom dishes (MatTek Corporation) at a density of 1 × 10^5 cells per dish. For the recordings of receptor internalization, HEK293 SL cells were transfected with 2 μg of AT1R-YFP. For the recordings of β-arrestin-2 recruitment to the receptor, HEK293SL cells were transfected with 50 ng of β-arrestin2-YFP and 250 ng of Flag-AT1R or HA-B2R. Forty-eight hours post-transfection, cells were serum starved, preincubated with DMSO (0.1% final concentration) or Rasarfin (50 μM) for 30 min at 37 °C. AT1R-expressing cells were stimulated with angiotensinII (AngII; 100 nM) and B2R-expressing cells were stimulated with bradykinin (BK; 1 μM) for 30 min (receptor-YFP) or 15 min (β-arrestin2-YFP). Cells were imaged with Zeiss LSM-510 and/or LSM-710 laser scanning confocal microscope. To detect YFP, […] and BP 505–550 nm emission filter. Images (2048 × 2048) were collected using a 63x oil immersion lens.

[2] = molecular target: K-Ras (Homo sapiens, UniProt P01116); test: Ras BRET sensor in cells overexpressing WT K-Ras and AT1R; type: cell-based; design: expressed in transfected cells; host or cells: HEK293SL
K-Ras, sequence (P01116 1-188 isoform P01116-2): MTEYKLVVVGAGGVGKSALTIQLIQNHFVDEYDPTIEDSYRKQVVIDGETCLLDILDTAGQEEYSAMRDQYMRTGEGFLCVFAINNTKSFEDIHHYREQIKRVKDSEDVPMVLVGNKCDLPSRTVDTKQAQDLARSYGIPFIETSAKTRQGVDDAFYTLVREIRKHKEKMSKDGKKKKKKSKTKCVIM
Excerpt: Because Tyr32 and Tyr40, located on the switch I domain of Ras, are critical for stabilizing Rasarfin binding through interactions with both the chlorine and isopropyl moiety (Fig. 7a, c), we reasoned that substituting them for Ala residues would negatively impact Rasarfin’s inhibitory action on Ras. […] Because we wanted to assess the inhibitory action of Rasarfin over different Ras subtypes, we mutated the two tyrosine residues to an alanine in K-Ras (Y32A, Y40A, and Y32A/Y40A mutants) within the same Rasarfin binding site found in H-Ras (Lys^5-Thr^74). This domain and residues are perfectly conserved among the Ras family members[44],[45]. WT K-Ras and K-Ras mutants were overexpressed along with AT1R in cells and AngII-mediated activation of Ras was assessed using the Ras BRET sensor (Supplementary Fig. 11a).
HEK293SL cells were seeded at a density of 7.5 × 10^5 cells per 100-mm dish and 24 h later, transiently transfected as such. For receptor internalization experiments, cells were transfected with 0.12 μg AT1R-RlucII, B2R-RlucII, or β2AR-RlucII and 0.48 μg of either rGFP-CAAX (to assess removal from the PM) or rGFP-FYVE (to assess accumulation in the endosomes). For β-arrestin recruitment assays, cells were transfected with 0.48 μg of receptor-YFP along with 0.12 μg of β-arrestin-RlucII. […] For kinetics of β-arrestin recruitment or β-arrestin binding to receptor and AP-2 experiments, cells were serum starved for 30 min, pretreated with 21 (50 µM) or Barbadin (100 µM) for 30 min, stimulated with 100 nM AngII or 1 µM BK and BRET signals were monitored at indicated times using a Victor X Light plate reader (PerkinElmer). […] The BRET ratio was determined by calculating the ratio of the light emitted by YFP over the light emitted by the RlucII. […] For the kinetics of GTPase and PI3K/Akt activation, cells were serum starved, pretreated with 21 (50 µM) or Wortmannin (200 nM) for 30 min, stimulated with ligand (100 nM AngII or 100 ng/ml EGF) and BRET signals were monitored at indicated times. […]

How did the “β-arrestin trafficking with AT1R into endosomes (microscopy)” value [1] turn out when `CC(C)C(=O)N1CCN(c2ccc(NC(=O)c3cc4ccccc4o3)cc2Cl)CC1` [Compound 21] was run?
The value was “prevented β-arrestins’ trafficking with receptors into endosomes”.

What about the “AngII-mediated activation of WT K-Ras (Ras BRET sensor)” value ([2]; 50 μM) of the same compound?
Its value is “only WT was significantly inhibited by Rasarfin”.

What about the “AngII-promoted BRET” value ([2]; Rasarfin 50 μM, K-Ras WT) of the same compound?
The value was 0.0405 and 0.05833 and 0.04947 and 0.058.

And the “AngII-promoted BRET, Mean Diff. DMSO - Rasarfin” value ([2]; Rasarfin 50 μM, K-Ras WT, Bonferroni's multiple comparisons test)?
The value was 0.04859.
